Data reported in patent US7776912B2, “Acetals of nepetalic acid and method of preparation” (E.I. du Pont de Nemours and Company, priority 2006, dated 2010).

System: Aedes aegypti mosquitoes
Assay: in vitro Gupta box landing assay (insect repellency)
Assay type: in vivo
Settings: 1% (w/v) in IPA, mean of three replicates; for % Mean repellency: 25 μl applied to Baudruche membrane over bovine blood, landings recorded over 20 min, (C−T)/C×100 vs IPA control well; for Mean time to first landing / Mean number of total landings: 25 μl on membrane; for Mean time to first landing: about 250 female Aedes aegypti; for Mean number of total landings: recorded at 2 min intervals over 20 min
Experimental: The products of Examples 1-6 were evaluated for the insect repellency against Aedes aegypti mosquitoes in the in vitro Gupta box landing assay. In this method, a chamber contained 5 wells, each covered by a Baudruche (animal intestine) membrane. Each well was filled with bovine blood, containing sodium citrate (to prevent clotting) and ATP (72 mg ATP disodium salt per 26 ml of blood), and heated to 37° C. A volume of 25 μl of isopropyl alcohol(IPA) containing one test specimen, or DEET as a control, was applied to each membrane. The concentrations were all 1% w/v in IPA except where otherwise indicated. The control was a membrane surface treated with a 1% solution of DEET.
After 5 min, approximately 250 4-day-old female Aedes aegypti mosquitoes were introduced into the chamber. The number of mosquitoes probing the membranes for each treatment was recorded at 2 min intervals over 20 min. Each datum represents the mean of three replicate experiments.
C=the total number of landings on the IPA control well, and
T=the total number of landings on the test solution well.
The % mean repellencies at 1% (w/v) are depicted in Table 2 in addition to mean time to first landing, and mean number of total landings for the nepetalic acid acetals of Examples 1-6 and for DEET as a control.

Row | SMILES | % Mean repellency | Mean time to first landing | Mean number of total landings
1 | CCN(CC)C(=O)c1cccc(C)c1 [DEET, N,N-diethyltoluamide, reference compound] | 68.60% | 3.5 min | 17.7
2 | COC1OC(=O)[C@H]2[C@H](CC[C@@H]2C)C1C (stereo partly drawn) [Example 1, (4aR,7S,7aR)-3-methoxy-4,7-dimethylhexahydrocyclopenta[c]pyran-1(3H)-one] | 79.30% | 3.2 min | 12.2
3 | CCOC1OC(=O)[C@H]2[C@H](CC[C@@H]2C)C1C (stereo partly drawn) [Example 2, (4aR,7S,7aR)-3-ethoxy-4,7-dimethylhexahydrocyclopenta[c]pyran-1(3H)-one] | 52.40% | 5.2 min | 26.4
4 | CCCOC1OC(=O)[C@H]2[C@H](CC[C@@H]2C)C1C (stereo partly drawn) [Example 3, (4aR,7S,7aR)-3-n-propoxy-4,7-dimethylhexahydrocyclopenta[c]pyran-1(3H)-one] | 89.10% | 11.6 min | 5.2
5 | CC(C)OC1OC(=O)[C@H]2[C@H](CC[C@@H]2C)C1C (stereo partly drawn) [Example 4, (4aR,7S,7aR)-3-isopropoxy-4,7-dimethylhexahydrocyclopenta[c]pyran-1(3H)-one] | 73.20% | 2.8 min | 30.6
6 | CCCCOC1OC(=O)[C@H]2[C@H](CC[C@@H]2C)C1C (stereo partly drawn) [Example 5, (4aR,7S,7aR)-3-n-butoxy-4,7-dimethylhexahydrocyclopenta[c]pyran-1(3H)-one] | 17.80% | 2.8 min | 33.8
7 | CC(C)COC1OC(=O)[C@H]2[C@H](CC[C@@H]2C)C1C (stereo partly drawn) [Example 6, (4aR,7S,7aR)-3-isobutoxy-4,7-dimethylhexahydrocyclopenta[c]pyran-1(3H)-one] | 20.40% | 2.0 min | 91.6
